Results on two molecules are retold here after publication PMC7943599, “ATP signaling in the integrative neural center of Aplysia californica” (Scientific Reports, 2021).

The target of test [1] is T1, AcP2X (Aplysia P2X receptor) (Aplysia californica, UniProt E2QDA7).
T1 construct: full-length CDS AcP2X (GenBank NP_001191558.1) expressed in Xenopus oocytes
T1 sequence (E2QDA7 1-434): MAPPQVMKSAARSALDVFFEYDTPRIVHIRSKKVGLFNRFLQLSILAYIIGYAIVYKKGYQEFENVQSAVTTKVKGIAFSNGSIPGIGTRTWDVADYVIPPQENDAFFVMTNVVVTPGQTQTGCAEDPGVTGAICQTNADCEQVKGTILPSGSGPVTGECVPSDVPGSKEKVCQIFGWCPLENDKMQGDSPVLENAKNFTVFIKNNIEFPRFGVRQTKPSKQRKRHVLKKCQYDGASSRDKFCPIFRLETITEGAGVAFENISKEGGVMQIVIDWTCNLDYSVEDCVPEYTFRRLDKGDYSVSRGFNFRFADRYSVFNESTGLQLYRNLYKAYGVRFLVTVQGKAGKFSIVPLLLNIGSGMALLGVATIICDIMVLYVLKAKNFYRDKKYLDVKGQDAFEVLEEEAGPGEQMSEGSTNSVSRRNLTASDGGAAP
The experiment in a line: two-electrode voltage clamp in Xenopus oocytes, agonist dose-response (fast component; slow component EC50 […]). The class given is cell-based.

Test [2] addresses T1, AcP2X (Aplysia P2X receptor). The experiment in a line: two-electrode voltage clamp in Xenopus oocytes, inhibition of current evoked by […] ATP (fast component). The class given is cell-based. In general terms: In two-electrode clamp one electrode senses voltage and the other passes current.

Each structure is given as a SMILES string.

Regarding `Nc1ncnc2c1ncn2[C@@H]1O[C@H](COP(=O)(O)OP(=O)(O)OP(=O)(O)O)[C@@H](O)[C@H]1O` [ATP], in test [1], it took 306 µM to reach a half-maximal effect (EC50).

`Cc1nc(/N=N/c2ccc(S(=O)(=O)O)cc2S(=O)(=O)O)c(COP(=O)(O)O)c(C=O)c1O` [PPADS]: the IC50 (commonly the point on the concentration scale where inhibition reaches its midpoint) in test [2] was found to be 211 µM.
